From patent US20130116231A1, “TYROSINE KINASE INHIBITORS” (Merck Sharp & Dohme Corp., priority 2010, published 2013)

Each compound was assayed against T1, human c-Met (Homo sapiens, UniProt P08581) (assay: in vitro kinase assay (homogeneous time-resolved tyrosine kinase assay, METKA)). Settings: recombinant GST-tagged c-Met cytosolic domain, HTRF, 50 μM MgATP; read-out: Biological Activity (METKA IC50) Activity Code.
T1 construct: Recombinant GST-tagged cytosolic domains of human c-Met; 6xHis; made in house; host or cells: Sf9 or Sf21 insect cells (baculovirus)
Format: biochemical
Text: Recombinant GST-tagged cytosolic domains of human c-Met and other receptor tyrosine kinases including mouse c-Met, human Ron, KDR, IGFR, EGFR, FGFR, Mer, TrkA and Tie2 are used to determine whether the compounds of the instant invention modulate the enzymatic activities of these kinases.
Soluble recombinant GST-tagged cytosolic domains of c-Met and other receptor tyrosine kinases are expressed in a baculovirus system (Pharmingen) according to a protocol recommended by the manufacturer. The c-DNA encoding each cytosolic domain is subcloned into a baculovirus expression vector (pGcGHLT-A, B or C, Pharmingen) containing an in frame 6× histidine tag and a GST tag. The resulting plasmid construct and BaculoGold baculovirus DNA (Pharmingen) are used to co-transfect Sf9 or Sf21 insect cells. After confirming expression of GST-tagged kinase fusion, a high titer recombinant baculovirus stock is produced, expression conditions are optimized, and a scaled up expression of rat KDR-GST fusion is performed. The fusion kinase is then purified from the insect cell lysate by affinity chromatography using glutathione agarose (Pharmingen). The purified protein is dialyzed against 50% glycerol, 2 mM DTT, 50 mM Tris-HCl (pH 7.4) and stored at −20° C. The protein concentrations of the fusion proteins are determined using Coomassie Plus Protein Assay (Pierce) with BSA as standard.
The kinase activities of c-Met and other kinases are measured using a modified version of the homogeneous time-resolved tyrosine kinase assay described by Park et al. (1999, Anal. Biochem. 269:94-104).
The procedure for determining the potency of a compound to inhibit c-Met kinase comprises the following steps: • 1. Prepare 3-fold serial diluted compound solutions in 100% dimethyl sulfoxide (DMSO) at 20× of the desired final concentrations in a 96 well plate. • 2. Prepare a master reaction mix containing 6.67 mM MgCl2, 133.3 mM NaCl, 66.7 mM Tris-HCl (pH 7.4), 0.13 mg/ml BSA, 2.67 mM dithiothreitol, 0.27 nM recombinant c-Met and 666.7 nM biotinylated synthetic peptide substrate (biotin-ahx-EQEDEPEGDYFEWLE-CONH2) (SEQ.ID.NO.:1). • 3. In a black assay plate, add 2.5 μl of compound solution (or DMSO) and 37.5 μl of master reaction mix per well. Initiate the kinase reaction by adding 10 μl of 0.25 mM MgATP per well. Allow the reactions to proceed for 80 min at room temperature. The final conditions for the reaction are 0.2 nM c-Met, 0.5 μM substrate, 50 μM MgATP, […], 100 mM NaCl, 2 mM DTT, 0.1 mg/ml BSA, 50 mM Tris (pH 7.4) and 5% DMSO. • 4. Stop the kinase reaction with 50 μl of Stop/Detection buffer containing 10 mM EDTA, 25 mM HEPES, 0.1% TRITON X-100, 0.126 μg/ml Eu-chelate labeled anti-phosphotyrosine antibody PY20 (cat. #AD0067, PerkinElmer) and 45 μg/ml Streptavidin-allophycocyanin conjugate (cat. #PJ25S, Prozyme). • 5. Read HTRF signals on a Victor reader (PerkinElmer) in HTRF mode after 60 min. • 6. IC50 is determined by fitting the observed relationship between compound concentration and HTRF signal with a 4-parameter logistic equation. Essentially the same procedure was used to determine the potency of compounds to inhibit mouse c-Met, human Ron, KDR, IGFR, EGFR, FGFR, Mer, TrkA and Tie2 except that the concentration of enzyme varied in individual assays (0.2 nM mouse c-Met; 2.5 nM Ron, 8 nM KDR; 0.24 nM IGFR; 0.24 nM EGFR; 0.14 nM FGFR; 16 nM Mer; 8 nM TrkA; 8 nM Tie2).

T1 sequence (P08581 956-1390 limits assumed): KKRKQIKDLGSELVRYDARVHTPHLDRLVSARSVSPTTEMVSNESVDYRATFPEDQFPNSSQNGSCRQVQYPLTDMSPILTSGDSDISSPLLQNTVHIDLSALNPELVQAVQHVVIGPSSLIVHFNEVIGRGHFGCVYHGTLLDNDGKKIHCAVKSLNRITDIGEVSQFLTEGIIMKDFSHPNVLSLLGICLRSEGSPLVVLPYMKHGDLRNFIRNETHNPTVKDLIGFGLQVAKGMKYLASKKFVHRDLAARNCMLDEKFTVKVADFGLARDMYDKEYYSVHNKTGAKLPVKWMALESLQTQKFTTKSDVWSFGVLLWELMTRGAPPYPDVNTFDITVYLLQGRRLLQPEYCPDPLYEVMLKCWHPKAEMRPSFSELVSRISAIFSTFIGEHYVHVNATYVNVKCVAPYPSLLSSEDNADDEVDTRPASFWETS

SMILES	IC50 [nM]
COCCOc1cnc2ccc(OCc3nn(-c4cccc(Br)c4)ccc3=O)cc2c1 [Example 38, 1-(3-bromophenyl)-3-({[3-(2-methoxyethoxy)quinolin-6-yl]oxy}methyl)pyridazin-4(1H)-one]	< 100
Cn1cc(-n2ccc(=O)c(COc3ccc4ncc(-n5cnnc5)cc4c3)n2)cn1 [Example 39, 1-(1-methyl-1H-pyrazol-4-yl)-3-({[3-(4H-1,2,4-triazol-4-yl)quinolin-6-yl]oxy}methyl)pyridazin-4(1H)-one]	100 to 1000
CC(Nc1nn(-c2cnn(C)c2)ccc1=O)c1ccc2ncccc2c1 (stereo not drawn) [Example 148]	< 100
CCn1cc(-n2ccc(=O)c(COc3ccc4ncc(-c5ccccc5F)cc4c3)n2)cn1 [Example 83, 1-(1-ethyl-1H-pyrazol-4-yl)-3-({[3-(2-fluorophenyl)quinolin-6-yl]oxy}methyl)pyridazin-4(1H)-one]	< 100
Cc1ccc2cc(OCc3nn(-c4cnn(C)c4)ccc3=O)ccc2n1 [Example 13]	100 to 1000
Cn1cc(-n2ccc(=O)c(COc3ccc4ncc(OCC5CCOC5)cc4c3)n2)cn1 (stereo not drawn) [Example 25, 1-(1-methyl-1H-pyrazol-4-yl)-3-({[3-(tetrahydrofuran-3-ylmethoxy)quinolin-6-yl]oxy}methyl)pyridazin-4(1H)-one]	< 100
Cn1cc(-n2ccc(=O)c(COc3ccc4ncccc4c3)n2)cn1 [Example 1, 1-(1-Methyl-1H-pyrazol-4-yl)-3-[(quinolin-6-yloxy)methyl]pyridazin-4(1H)-one]	< 100
Cn1cc(-n2ccc(=O)c(COc3ccc4ncsc4c3)n2)cn1 [Example 105, 3-[(1,3-Benzothiazol-6-yloxy)methyl]-1-(1-methyl-1H-pyrazol-4-yl)pyridazin-4(1H)-one]	< 100
N#Cc1cc(Cl)cc(-n2ccc(=O)c(COc3ccc4ncccc4c3)n2)c1 [Example 6, 3-chloro-5-{4-oxo-3-[(quinolin-6-yloxy)methyl]pyridazin-1(4H)-yl}benzonitrile]	< 100
COc1ccnc2ccc(C(C)Oc3nn(-c4cnn(C)c4)ccc3=O)cc12 (stereo not drawn) [Example 131, 3-[1-(4-methoxyquinolin-6-yl)ethoxy]-1-(1-methyl-1H-pyrazol-4-yl)pyridazin-4(1H)-one]	100 to 1000
N#Cc1cc(F)cc(-n2ccc(=O)c(COc3ccc4ncccc4c3)n2)c1 [Example 4, 3-fluoro-5-{4-oxo-3-[(quinolin-6-yloxy)methyl]pyridazin-1(4H)-yl}benzonitrile]	< 100
Cn1cc(-n2ccc(=O)c(COc3ccc4ncc(OCC5(C)COC5)cc4c3)n2)cn1 [Example 26, 3-[({3-[(3-methyloxetan-3-yl)methoxy]quinolin-6-yl}oxy)methyl]-1-(1-methyl-1H-pyrazol-4-yl)pyridazin-4(1H)-one]	< 100
Cn1cc(-n2ccc(=O)c(CCc3ccc4nccnc4c3)n2)cn1 [Example 60, 1-(1-Methyl-1H-pyrazol-4-yl)-3-[2-(quinoxalin-6-yl)ethyl]pyridazin-4(1H)-one]	1000 to 3000
CCOc1ccnc2ccc(OCc3nn(-c4cnn(C)c4)ccc3=O)cc12 [Example 43, 3-{[(4-Ethoxyquinolin-6-yl)oxy]methyl}-1-(1-methyl-1H-pyrazol-4-yl)pyridazin-4(1H)-one]	< 100
CCc1ccnc2ccc(OCc3nn(-c4cnn(C)c4)ccc3=O)cc12 [Example 98, 3-{[(4-Ethylquinolin-6-yl)oxy]methyl}-1-(1-methyl-1H-pyrazol-4-yl)pyridazin-4(1H)-one]	< 100
COCCOC(=O)Nc1ccc(CCc2nn(-c3cnn(C)c3)ccc2=O)cc1 [Example 120, 2-methoxyethyl (4-{2-[1-(1-methyl-1H-pyrazol-4-yl)-4-oxo-1,4-dihydropyridazin-3-yl]ethyl}phenyl)carbamate]	1000 to 3000
COCCOc1cnc2ccc(CCc3nn(-c4cnn(C)c4)ccc3=O)cc2c1 [Example 57, 3-{2-[3-(2-methoxyethoxy)quinolin-6-yl]ethyl}-1-(1-methyl-1H-pyrazol-4-yl)pyridazin-4(1H)-one]	< 100
COC(=O)c1cnc2ccc(OCc3nn(-c4cnn(C)c4)ccc3=O)cc2c1 [Example 95, Methyl 6-{[1-(1-methyl-1H-pyrazol-4-yl)-4-oxo-1,4-dihydropyridazin-3-yl]methoxy}quinoline-3-carboxylate]	100 to 1000
CCn1cc(-n2ccc(=O)c(COc3ccc4ncc(Oc5ccccn5)cc4c3)n2)cn1 [Example 67, 1-(1-ethyl-1H-pyrazol-4-yl)-3-({[3-(pyridin-2-yloxy)quinolin-6-yl]oxy}methyl)pyridazin-4(1H)-one]	< 100
CCn1cc(-n2ccc(=O)c(COc3ccc4ncc(-c5ccc(N6CCOCC6)nc5)cc4c3)n2)cn1 [Example 87, 1-(1-ethyl-1H-pyrazol-4-yl)-3-({[3-(6-morpholin-4-ylpyridin-3-yl)quinolin-6-yl]oxy}methyl)pyridazin-4(1H)-one]	< 100
Cn1cc(-n2ccc(=O)c(CCc3ccc(NCCCCO)cc3)n2)cn1 [Example 118, 3-(2-{4-[(4-hydroxybutyl)amino]phenyl}ethyl)-1-(1-methyl-1H-pyrazol-4-yl)pyridazin-4(1H)-one]	100 to 1000
O=c1ccn(-c2ccc(F)c(F)c2)nc1COc1ccc2ncccc2c1 [Example 8, 1-(3,4-difluorophenyl)-3-[(quinolin-6-yloxy)methyl] pyridazin-4(1H)-one]	< 100
Cn1cc(-n2ccc(=O)c(COc3ccc4ncc(OCC(F)F)cc4c3)n2)cn1 [Example 65, 3-({[3-(2,2-difluoroethoxy)quinolin-6-yl]oxy}methyl)-1-(1-methyl-1H-pyrazol-4-yl)pyridazin-4(1H)-one]	< 100
COCCOc1cnc2ccc(OCc3nn(-c4cc(Cl)cc(C#N)c4)ccc3=O)cc2c1 [Example 29, 3-chloro-5-[3-({[3-(2-methoxyethoxy)quinolin-6-yl]oxy}methyl)-4-oxopyridazin-1(4H)-yl]benzonitrile]	< 100
Cn1cc(-n2ccc(=O)c(COc3ccc4ncc(-n5ccnn5)cc4c3)n2)cn1 [Example 42, 1-(1-Methyl-1H-pyrazol-4-yl)-3-({[3-(1H-1,2,3-triazol-1-yl)quinolin-6-yl]oxy}methyl)pyridazin-4(1H)-one]	< 100
CCn1cc(-n2ccc(=O)c(COc3ccc4ncc(-c5ccccc5C)cc4c3)n2)cn1 [Example 84, 1-(1-ethyl-1H-pyrazol-4-yl)-3-({[3-(2-methylphenyl)quinolin-6-yl]oxy}methyl)pyridazin-4(1H)-one]	< 100
CCn1cc(-n2ccc(=O)c(COc3ccc4ncc(-c5ccccc5)cc4c3)n2)cn1 [Example 91, 1-(1-ethyl-1H-pyrazol-4-yl)-3-{[(3-phenylquinolin-6-yl)oxy]methyl}pyridazin-4(1H)-one]	< 100
Cn1cc(-n2ccc(=O)c(COc3ccc4ncc(N)cc4c3)n2)cn1 [Example 112, 3-{[(3-Aminoquinolin-6-yl)oxy]methyl}-1-(1-methyl-1H-pyrazol-4-yl)pyridazin-4(1H)-one]	< 100
Cn1cc(-n2ccc(=O)c(NCc3ccc4ncccc4c3)n2)cn1 [Example 147, 1-(1-methyl-1H-pyrazol-4-yl)-3-[(quinolin-6-ylmethyl)amino]pyridazin-4(1H)-one]	100 to 1000
CCOc1cnc2ccc(OCc3nn(-c4cc(F)cc(C#N)c4)ccc3=O)cc2c1 [Example 44, 3-[3-{[(3-ethoxyquinolin-6-yl)oxy]methyl}-4-oxopyridazin-1(4H)-yl]-5-fluorobenzonitrile]	< 100
